Source: patent publication US7101878B1 (Agouron Pharmaceuticals, Inc., priority 1998, dated 2006)
Where two headings read alike, the source gives them in different places.

Target: T1, human GnRH receptor (Homo sapiens, UniProt P30968)
T1 construct: expressed in transfected cells; host or cells: HEK 293 (hGnRH-R/293, from Dr. Stuart Sealfon)
T1 sequence (P30968 1-328): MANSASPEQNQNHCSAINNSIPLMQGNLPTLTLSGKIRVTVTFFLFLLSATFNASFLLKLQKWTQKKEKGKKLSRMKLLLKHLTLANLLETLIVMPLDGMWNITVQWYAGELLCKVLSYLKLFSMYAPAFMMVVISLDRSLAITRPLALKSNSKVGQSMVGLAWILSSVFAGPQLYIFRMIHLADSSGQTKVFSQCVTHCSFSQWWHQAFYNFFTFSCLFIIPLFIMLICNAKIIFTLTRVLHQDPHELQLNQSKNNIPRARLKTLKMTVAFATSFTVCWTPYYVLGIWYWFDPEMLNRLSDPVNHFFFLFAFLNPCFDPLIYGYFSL
Assay: Radioligand binding, 125I-GnRH-A displacement, membranes of HEK 293 cells with human GnRH receptor
Details: for IC50: read-out: hGnRH IC50; for remaining activity at 10 µM: read-out: S%R 10 uM hGnRHR; for remaining activity at 1 µM: 1 uM compound, read-out: S%R 1 uM hGnRHR
Method in brief: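 Bound tracer was separated by filtration through polyethyleneimine-soaked GF/C filters and counted by liquid scintillation. IC50 from curve fitting; other species were tested under the same conditions.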

[1] = 1 h, substrate remaining, 10 uM compound, closer to zero = closer to 100% inhibition
[2] = 1 h, substrate remaining, closer to zero = closer to 100% inhibition
[3] = 1 uM, read-out: % Inhib. @ 1 uM hGnRH
[4] = 1 h, repeat of % Inhib. at 1 uM, read-out: Repeats @ 1 uM hGnRH

Compound: Cc1cc2c(cc1Cc1ccc(C(=O)NC[C@@H]3CCCO3)o1)C(C)(C)CCC2(C)C [Compound 58]
- IC50: 205 nM

Compound: Cc1cc2c(cc1Cc1ccc(C(=O)Nc3cccnc3)o1)C(C)(C)CCC2(C)C [Compound 320]
- remaining activity at 10 µM [1]: 9%

Compound: Cc1cc2c(cc1Cc1ccc(C(=O)NCC3CN(Cc4ccccc4)CCO3)o1)C(C)(C)CCC2(C)C (stereo not shown) [Compound 59]
- IC50: 980 nM

Compound: Cc1cc2c(cc1Cc1ccc(C(=O)Nc3ccc4[nH]ccc4c3)o1)C(C)(C)CCC2(C)C [Compound 357]
- S%R 10 uM hGnRHR (substrate remaining, 10 uM compound, closer to zero = closer to 100% inhibition): −2%

Compound: Cc1cc2c(cc1Cc1ccc(C(=O)NCc3ccc(Cl)cc3)o1)C(C)(C)CCC2(C)C [Compound 409]
- remaining activity at 1 µM [2]: 32%

Compound: Cc1cc2c(cc1Cc1ccc(C(=O)NCCc3ccc4c(c3)OCO4)o1)C(C)(C)CCC2(C)C [drawing 1055]
- inhibition at 1 µM [3]: 51%
- inhibition at 1 µM [4]: 56%

Compound: Cc1cc2c(cc1Cc1ccc(C(=O)NCCNCCNc3ccccc3)o1)C(C)(C)CCC2(C)C [drawing 1043]
- inhibition at 1 µM [3]: -1%
- inhibition at 1 µM [4]: -9%

Compound: Cc1cnc(CNC(=O)c2cccc(Cc3cc4c(cc3C)C(C)(C)CCC4(C)C)c2)cn1 [Compound 37.5]
- IC50: 7800 nM

Compound: Cc1cc2c(cc1Cc1ccc(C(=O)NCc3ccc(F)c(F)c3)o1)C(C)(C)CCC2(C)C [drawing 1030]
- inhibition at 1 µM [3]: 55%
- inhibition at 1 µM [4]: 60%

Compound: Cc1cc2c(cc1Cc1ccc(C(=O)NCCC3CCCN3C)o1)C(C)(C)CCC2(C)C (stereo not shown) [drawing 977]
- inhibition at 1 µM [3]: 40%
- inhibition at 1 µM [4]: 49%

Compound: Cc1cc2c(cc1Cc1ccc(C(=O)NCCCN(C)c3ccccc3)o1)C(C)(C)CCC2(C)C [drawing 1000]
- inhibition at 1 µM [3]: 67%
- inhibition at 1 µM [4]: 70%

Compound: Cc1cc2c(cc1Cc1ccc(C(=O)NCc3cccc(Cl)c3Cl)o1)C(C)(C)CCC2(C)C [drawing 1102]
- inhibition at 1 µM [3]: 62%
- inhibition at 1 µM [4]: 69%

Compound: Cc1cc2c(cc1Cc1ccc(C(=O)N3CCN(c4ccc(F)cc4)CC3)o1)C(C)(C)CCC2(C)C
- inhibition at 1 µM [3]: -24%
- inhibition at 1 µM [4]: 9%

Compound: COc1ccc(CNC(=O)c2ccc(Cc3cc4c(cc3C)C(C)(C)CCC4(C)C)o2)cc1 [drawing 1098]
- inhibition at 1 µM [3]: 89%
- inhibition at 1 µM [4]: 92%

Compound: Cc1cc2c(cc1Cc1ccc(C(=O)NC(C#N)c3ccc(F)cc3)o1)C(C)(C)CCC2(C)C (stereo not shown)
- inhibition at 1 µM [3]: 2%
- inhibition at 1 µM [4]: 4%

Compound: Cc1cc2c(cc1Cc1ccc(C(=O)N3CCCCC3c3ccccc3)o1)C(C)(C)CCC2(C)C (stereo not shown)
- inhibition at 1 µM [3]: -19%
- inhibition at 1 µM [4]: -22%

Compound: COc1cc(OC)c(NC(=O)c2ccc(Cc3cc(C(=O)C(C)(C)C)c(OC)cc3OC)o2)c(OC)c1 [Compound 229]
- IC50: 250 nM

Compound: COc1cccc(CCNC(=O)c2ccc(Cc3cc4c(cc3C)C(C)(C)CCC4(C)C)o2)c1OC [Compound 429]
- remaining activity at 1 µM [2]: 40%

Compound: COc1cc(CCNC(=O)c2ccc(Cc3cc4c(cc3C)C(C)(C)CCC4(C)C)o2)cc(OC)c1O [drawing 1061]
- inhibition at 1 µM [3]: 44%
- inhibition at 1 µM [4]: 49%

Compound: CCc1ccc(CCNC(=O)c2ccc(Cc3cc4c(cc3C)C(C)(C)CCC4(C)C)o2)cc1
- inhibition at 1 µM [3]: 29%
- inhibition at 1 µM [4]: 32%

Compound: Cc1cc2c(cc1Cc1ccc(C(=O)NC(C)(C)c3ccccc3)o1)C(C)(C)CCC2(C)C
- inhibition at 1 µM [3]: 28%
- inhibition at 1 µM [4]: 45%

Compound: Cc1cc2c(cc1Cc1ccc(C(=O)N3CCN(c4cccc(Cl)c4)CC3)o1)C(C)(C)CCC2(C)C
- inhibition at 1 µM [3]: -22%
- inhibition at 1 µM [4]: 9%

Compound: Cc1cc2c(cc1Cc1ccc(C(=O)NC(CO)Cc3ccc(Cl)cc3)o1)C(C)(C)CCC2(C)C (stereo not shown)
- inhibition at 1 µM [3]: 16%
- inhibition at 1 µM [4]: 3%

Compound: Cc1cc2c(cc1Cc1ccc(C(=O)NCCc3ccc(N)cc3)o1)C(C)(C)CCC2(C)C [drawing 1017]
- inhibition at 1 µM [3]: 57%
- inhibition at 1 µM [4]: 64%

Compound: Cc1cc2c(cc1Cc1ccc(C(=O)N(CCc3ccccc3)Cc3ccccc3O)o1)C(C)(C)CCC2(C)C
- inhibition at 1 µM [3]: -20%
- inhibition at 1 µM [4]: -30%

Compound: Cc1cc2c(cc1Cc1ccc(C(=O)NCCN3CCNC3=O)o1)C(C)(C)CCC2(C)C [drawing 1041]
- inhibition at 1 µM [3]: 32%
- inhibition at 1 µM [4]: 44%

Compound: Cc1cc2c(cc1Cc1ccc(C(=O)Nc3ccccc3CO)o1)C(C)(C)CCC2(C)C [Compound 333]
- remaining activity at 10 µM [1]: 28%

Compound: COc1cccc(CNC(=O)c2ccc(Cc3cc4c(cc3C)C(C)(C)CCC4(C)C)o2)c1 [Compound 439]
- remaining activity at 1 µM [2]: 23%

Compound: COc1ccc(CNC(=O)c2ccc(Cc3cc4c(cc3C)C(C)(C)CCC4(C)C)o2)c(OC)c1 [drawing 1224]
- inhibition at 1 µM [3]: 94%
- inhibition at 1 µM [4]: 96%

Compound: Cc1cc2c(cc1Cc1ccc(C(=O)NCc3ccccc3Sc3ccccc3CO)o1)C(C)(C)CCC2(C)C
- inhibition at 1 µM [3]: 51%
- inhibition at 1 µM [4]: 54%

Compound: Cc1cc2c(cc1Cc1ccc(C(=O)NC(c3ccccc3)C(O)c3ccccc3)o1)C(C)(C)CCC2(C)C (stereo not shown) [Compound 403]
- remaining activity at 1 µM [2]: 44%

Compound: Cc1cc2c(cc1Cc1ccc(C(=O)NC(C)CCc3ccccc3)o1)C(C)(C)CCC2(C)C (stereo not shown) [Compound 423]
- remaining activity at 1 µM [2]: 49%

Compound: COc1ccc(CNC(=O)c2ccc(Cc3cc4c(cc3C)C(C)(C)CCC4(C)C)o2)cc1OC [Compound 411]
- remaining activity at 1 µM [2]: 28%

Compound: Cc1cc2c(cc1Cc1ccc(C(=O)Nc3cccc4ncccc34)o1)C(C)(C)CCC2(C)C [Compound 346]
- remaining activity at 10 µM [1]: -14%

Compound: COc1cccc(CCNC(=O)c2ccc(Cc3cc4c(cc3C)C(C)(C)CCC4(C)C)o2)c1 [drawing 994]
- inhibition at 1 µM [3]: 49%
- inhibition at 1 µM [4]: 50%

Compound: Cc1cc2c(cc1Cc1ccc(C(=O)NCCCCNc3nccc(NCC4CCCO4)n3)o1)C(C)(C)CCC2(C)C (stereo not shown) [Compound 69]
- IC50: 1410 nM

Compound: Cc1cc2c(cc1Cc1ccc(C(=O)NCCc3ccccn3)o1)C(C)(C)CCC2(C)C [drawing 985]
- inhibition at 1 µM [3]: 50%
- inhibition at 1 µM [4]: 62%

Compound: Cc1cc2c(cc1Cc1ccc(C(=O)N[C@H](CO)c3ccccc3)o1)C(C)(C)CCC2(C)C
- inhibition at 1 µM [3]: 15%
- inhibition at 1 µM [4]: 26%

Compound: Cc1cc2c(cc1Cc1ccc(C(=O)NCc3nc4ccccc4[nH]3)o1)C(C)(C)CCC2(C)C [drawing 1053]
- inhibition at 1 µM [3]: 100%
- inhibition at 1 µM [4]: 101%

Compound: Cc1cc2c(cc1Cc1ccc(C(=O)NCCCCNc3nccc(NCC4CCCO4)n3)o1)C(C)(C)CCC2(C)C (stereo not shown) [drawing 1047]
- inhibition at 1 µM [3]: 27%
- inhibition at 1 µM [4]: 38%

Compound: Cc1cccc(CNC(=O)c2ccc(Cc3cc4c(cc3C)C(C)(C)CCC4(C)C)o2)c1 [drawing 1174]
- inhibition at 1 µM [3]: 93%
- inhibition at 1 µM [4]: 95%

Compound: COc1ccc(CCNC(=O)c2ccc(Cc3cc4c(cc3C)C(C)(C)CCC4(C)C)o2)cc1 [Compound 433]
- remaining activity at 1 µM [2]: 54%

Compound: Cc1cc2c(cc1Cc1ccc(C(=O)NCCc3ccc(Cl)c(Cl)c3)o1)C(C)(C)CCC2(C)C
- inhibition at 1 µM [3]: -5%
- inhibition at 1 µM [4]: 8%

Compound: COc1cc(CNC(=O)c2ccc(Cc3cc4c(cc3C)C(C)(C)CCC4(C)C)o2)ccc1O [Compound 448]
- remaining activity at 1 µM [2]: 46%

Compound: COc1cc(OC)c(NC(=O)c2ccc(Cc3cc4c(cc3C(C)C)C(C)(C)CCC4(C)C)o2)c(OC)c1 [Compound 171]
- IC50: 1140 nM

Compound: Cc1ccc(CCNC(=O)c2ccc(Cc3cc4c(cc3C)C(C)(C)CCC4(C)C)o2)cc1 [Compound 442]
- remaining activity at 1 µM [2]: 50%

Compound: Cc1cc2c(cc1Cc1ccc(C(=O)NC(C#N)c3ccccc3)o1)C(C)(C)CCC2(C)C (stereo not shown) [drawing 1233]
- inhibition at 1 µM [3]: 43%
- inhibition at 1 µM [4]: 48%

Compound: Cc1cc2c(cc1Cc1ccc(C(=O)NCc3ccc(C(C)(C)C)cc3)o1)C(C)(C)CCC2(C)C [Compound 49]
- IC50: 3700 nM

Compound: Cc1cc2c(cc1Cc1ccc(C(=O)NCCCN(CCO)CCO)o1)C(C)(C)CCC2(C)C
- inhibition at 1 µM [3]: 35%
- inhibition at 1 µM [4]: 36%

Compound: Cc1cc2c(cc1Cc1ccc(C(=O)NCCSc3cc(C(F)(F)F)nc4ccccc34)o1)C(C)(C)CCC2(C)C
- inhibition at 1 µM [3]: -18%
- inhibition at 1 µM [4]: 5%

Compound: COc1cccc(OC)c1NC(=O)c1ccc(Cc2cc3c(cc2C)C(C)(C)CCC3(C)C)o1 [Compound 389]
- remaining activity at 10 µM (1 h): 3%

Compound: Cc1cc2c(cc1Cc1ccc(C(=O)NCc3cc(Cl)ccc3Cl)o1)C(C)(C)CCC2(C)C
- inhibition at 1 µM [3]: 26%
- inhibition at 1 µM [4]: 34%

Compound: Cc1cc2c(cc1Cc1ccc(C(=O)NCc3cccc(Cl)c3Cl)o1)C(C)(C)CCC2(C)C [Compound 416]
- remaining activity at 1 µM [2]: 34%

Compound: Cc1cc2c(cc1Cc1ccc(C(=O)Nc3ccccc3)o1)C(C)(C)CCC2(C)C [Compound 195]
- insolubility remark in hGnRH IC50 cell (binding assay conditions): Insol. >3 uM
- IC50: 320 nM

Compound: Cc1cc2c(cc1Cc1ccc(C(=O)NCC3CCN(c4nccc(NCC5CCCO5)n4)CC3)o1)C(C)(C)CCC2(C)C (stereo not shown) [drawing 1037]
- inhibition at 1 µM [3]: 35%
- inhibition at 1 µM [4]: 35%

Compound: COc1cc(CNC(=O)c2ccc(Cc3cc4c(cc3C)C(C)(C)CCC4(C)C)o2)cc(OC)c1OC [drawing 995]
- inhibition at 1 µM [3]: 60%
- inhibition at 1 µM [4]: 62%

Compound: Cc1cc2c(cc1Cc1ccc(C(=O)NCc3ccc(Cl)cc3Cl)o1)C(C)(C)CCC2(C)C [Compound 425]
- remaining activity at 1 µM [2]: 42%

Compound: Cc1cc2c(cc1Cc1ccc(C(=O)Nc3ccc(CC#N)cc3)o1)C(C)(C)CCC2(C)C [Compound 347]
- remaining activity at 10 µM [1]: 2%

Compound: COc1ccc(OC)c(Cc2ccc(C(=O)Nc3c(OC)cccc3OC)o2)c1 [Compound 202]
- IC50: 1420 nM

Compound: COc1cc(OC)c(NC(=O)c2ccc(Cc3c(C)c(C)c(C)c(C)c3C)o2)c(OC)c1 [Compound 197]
- IC50: 1040 nM
